Reference: patent publication US4504580A, “Antibiotics produced by fermentation of a novel strain of Streptomyces hygroscopicus” (Bristol-Myers Company, priority 1983, dated 1985)
Converted amounts (≈) assume the structure as drawn.

Columns and labels:
[1] = system: Micrococcus luteus PCI 1001; test: MIC by serial two-fold agar dilution, M. luteus PCI 1001; type: cell-based; conditions: Micrococcus luteus, PCI1001; Table 7; Mueller-Hinton agar; read-out: MIC
Experimental: (§1) The minimum inhibitory concentrations (MIC) of Bu-2659A, B, C, D and E were determined for a variety of gram-positive and gram-negative bacteria by the serial two-fold agar dilution method using the Steer's multi-inoculating apparatus. The inoculum was standardized as a 10^4 dilution of an overnight culture of the test organisms in Heart Infusion Broth (Difco). […] Reference antibiotics utilized in these tests included commercially available neomycin as well as its components, neomycins B and C [as used herein, the term "neomycin" means the commercial product containing neomycins B and C at an approximate ratio of 7:3], paromomycin [the commercial product containing >90% of paromomycin I and <10% of paromomycin II] and ribostamycin.

[2] = system: Micrococcus flavus D12; test: MIC by serial two-fold agar dilution, M. flavus D12; type: cell-based; conditions: Micrococcus flavus, D12; Table 7; Mueller-Hinton agar; read-out: MIC
Experimental: as §1

[3] = system: Bacillus subtilis PCI 219; test: MIC by serial two-fold agar dilution, B. subtilis PCI 219; type: cell-based; conditions: Bacillus subtilis, PCI219; Table 7; Mueller-Hinton agar; read-out: MIC
Experimental: as §1

[4] = system: Escherichia coli NIHJ; test: MIC by serial two-fold agar dilution, E. coli NIHJ; type: cell-based; conditions: Escherichia coli; Table 7; Mueller-Hinton agar; read-out: MIC
Experimental: as §1

[5] = system: Klebsiella pneumoniae D11; test: MIC by serial two-fold agar dilution, K. pneumoniae D11; type: cell-based; conditions: Klebsiella pneumoniae, D11; Table 7; Mueller-Hinton agar; read-out: MIC
Experimental: as §1

[6] = system: Proteus mirabilis A9906; test: MIC by serial two-fold agar dilution, P. mirabilis A9906; type: cell-based; conditions: Proteus mirabilis, A9906; Table 7; Mueller-Hinton agar; read-out: MIC
Experimental: as §1

[7] = system: Proteus morganii A9553; test: MIC by serial two-fold agar dilution, P. morganii A9553; type: cell-based; conditions: Morganella morganii, A9553; Table 7; Mueller-Hinton agar; read-out: MIC
Experimental: as §1

[8] = system: Proteus rettgeri A15167; test: MIC by serial two-fold agar dilution, P. rettgeri A15167; type: cell-based; conditions: Providencia rettgeri, A15167; Table 7; Mueller-Hinton agar; read-out: MIC
Experimental: as §1

[9] = system: Pseudomonas aeruginosa D15; test: MIC by serial two-fold agar dilution, P. aeruginosa D15; type: cell-based; conditions: Pseudomonas aeruginosa, D15; Table 7; Mueller-Hinton agar; read-out: MIC
Experimental: as §1

[10] = system: Streptococcus pyogenes A20201; test: MIC by serial two-fold agar dilution, S. pyogenes A20201; type: cell-based; conditions: Streptococcus pyogenes, A20201; Table 8; GC medium; read-out: MIC
Experimental: as §1

[11] = system: Neisseria gonorrhoeae A20143; test: MIC by serial two-fold agar dilution, N. gonorrhoeae A20143; type: cell-based; conditions: Neisseria gonorrhoeae, A20143; Table 8; GC medium; read-out: MIC
Experimental: as §1

[12] = system: Mycobacterium smegmatis 607; test: MIC by serial two-fold agar dilution, M. smegmatis 607; type: cell-based; conditions: Mycolicibacterium smegmatis, 607; Table 8; No. 1001 medium; read-out: MIC
Experimental: as §1

[13] = system: Bacillus brevis IFO 12334; test: MIC, aminoglycoside-resistant B. brevis IFO 12334; type: cell-based; conditions: Brevibacillus brevis, IFO12334; Table 9; inactivating enzyme ANT (4'); Mueller-Hinton agar; read-out: MIC
Experimental: as §1

[14] = system: Escherichia coli JR66/W677; test: MIC, aminoglycoside-resistant E. coli JR66/W677; type: cell-based; conditions: Escherichia coli, JR66/W677
Experimental: as §1

[15] = system: Escherichia coli JR88; test: MIC, aminoglycoside-resistant E. coli JR88; type: cell-based; conditions: Escherichia coli, JR88
Experimental: as §1

[16] = system: Escherichia coli JR35/C600; test: MIC, aminoglycoside-resistant E. coli JR35/C600; type: cell-based; conditions: Escherichia coli, JR35/C600
Experimental: as §1

[17] = system: Enterobacter cloacae A20364; test: MIC, aminoglycoside-resistant E. cloacae A20364; type: cell-based; conditions: Enterobacter cloacae, A20364; Table 9; inactivating enzyme APH(3')-I; Mueller-Hinton agar; read-out: MIC
Experimental: as §1

[18] = system: Pseudomonas aeruginosa A20601; test: MIC, aminoglycoside-resistant P. aeruginosa A20601; type: cell-based; conditions: Pseudomonas aeruginosa, A20601; Table 9; inactivating enzymes AAC(3)-I, APH(3')-II; Mueller-Hinton agar; read-out: MIC
Experimental: as §1

[19] = system: Klebsiella pneumoniae D-11; test: Experimental systemic infection in mice, K. pneumoniae D-11; type: in vivo; conditions: Klebsiella pneumoniae, D11, 96 h, im, single treatment, 4 days, read-out: PD50
Experimental: (§2) The in vivo activity of Bu-2659A was assessed by experimental systemic infection in mice. The pathogenic bacteria used in the in vivo tests were E. coli Juhl, K. pneumoniae D-11, P. mirabilis A9906, S. aureus Smith and S. pyogenes A20201. Mice were challenged intraperitoneally with approximately 100×LD50 dose of the pathogens in a 5% suspension of hog gastric mucin (American Laboratories, Omaha, Neb.). A single intramuscular treatment with the antibiotic was given immediately after the bacterial challenge. […] Neomycin was comparatively tested as a reference compound. […] In terms of PD50 value Bu-2659A was about one-half as active as neomycin against infections with S. aureus and S. pyogenes.

[20] = system: Proteus mirabilis A9906; test: Experimental systemic infection in mice, P. mirabilis A9906; type: in vivo; conditions: Proteus mirabilis, A9906, 96 h, im, single treatment, 4 days, read-out: PD50
Experimental: as §2

[21] = system: Staphylococcus aureus Smith; test: Experimental systemic infection in mice, S. aureus Smith; type: in vivo; conditions: Staphylococcus aureus, 96 h, im, single treatment, 4 days, read-out: PD50
Experimental: as §2

[22] = system: Streptococcus pyogenes A20201; test: Experimental systemic infection in mice, S. pyogenes A20201; type: in vivo; conditions: Streptococcus pyogenes, A20201, 96 h, im, single treatment, 4 days, read-out: PD50
Experimental: as §2

NC[C@@H]1O[C@H](O[C@H]2[C@@H](O)[C@H](O[C@@H]3[C@@H](O)[C@H](O)C[C@H](N)[C@H]3O[C@H]3O[C@H](CN)[C@@H](O)[C@H](O)[C@H]3N)O[C@@H]2CO)[C@H](N)[C@@H](O)[C@@H]1O [Bu-2659A, 1-deamino-1-hydroxyneomycin B]
MIC [1]: 3.1 µg/mL (≈ 5.04 µM)
MIC [2]: 6.3 µg/mL (≈ 10.2 µM)
MIC [3]: 0.1 µg/mL (≈ 0.162 µM)
MIC [4]: 1.6 µg/mL (≈ 2.6 µM)
MIC [5]: 0.2 µg/mL (≈ 0.325 µM)
MIC [6]: 0.8 µg/mL (≈ 1.3 µM)
MIC [7]: 1.6 µg/mL (≈ 2.6 µM)
MIC [8]: 0.8 µg/mL (≈ 1.3 µM)
MIC [9]: 3.1 µg/mL (≈ 5.04 µM)
MIC [10]: 25 µg/mL (≈ 40.6 µM)
MIC [11]: 50 µg/mL (≈ 81.2 µM)
MIC [12]: 0.4 µg/mL (≈ 0.65 µM)
MIC [13]: > 100 µg/mL
MIC [14]: > 100 µg/mL
MIC [15]: 1.6 µg/mL (≈ 2.6 µM)
MIC [16]: 25 µg/mL (≈ 40.6 µM)
MIC [17]: 50 µg/mL (≈ 81.2 µM)
MIC [18]: 6.3 µg/mL (≈ 10.2 µM)
ED50 [19]: 1.1 mg/kg
ED50 [20]: 2.5 mg/kg
ED50 [21]: 0.63 mg/kg
ED50 [22]: 50 mg/kg
